From ChEMBL document CHEMBL3822385, “Antileishmanial activity of new thiophene-indole hybrids: Design, synthesis, biological and cytotoxic evaluation, and chemometric studies” (Bioorg Med Chem, 2016)
≈ marks a conversion by molar mass, not a printed value. Calls of active or inactive are those of the source. The calls are words filed in the database; no cut-off is given here.

Assays:
[1] = Hemolytic activity in human O+ erythrocytes after 1 hr by spectrophotometry; format: ADME, cell-based, Erythrocyte; conditions: for HC50 at 1 h: human O+ erythrocytes
Leishmania amazonensis [2] = test: Antileishmanial activity against Leishmania amazonensis IFLA/BR/67/PH8 promastigotes assessed as parasite growth inhibition incubated for 72 hrs using neubauer chamber by microscopic analysis; format: functional, organism-based; conditions: IFLA/BR/67/PH8, 72 h
[3] = Selectivity index, ratio of HC50 for human O+ erythrocytes to IC50 for Leishmania amazonensis IFLA/BR/67/PH8 promastigotes
Leishmania amazonensis [4] = test: Antileishmanial activity against trivalent antimony-resistant Leishmania amazonensis IFLA/BR/67/PH8 promastigotes assessed as parasite growth inhibition incubated for 72 hrs using neubauer chamber by microscopic analysis; format: functional, organism-based; conditions: IFLA/BR/67/PH8, 72 h
Leishmania amazonensis [5] = test: Induction of genomic DNA fragmentation in Leishmania amazonensis IFLA/BR/67/PH8 promastigotes at 1 to 4 times antileishmanial IC50 after overnight incubation by GelRed staining based agarose gel electrophoresis; format: functional, organism-based

Row | Molecule | HC50 at 1 h [1] [µg/mL] | IC50 (Leishmania amazonensis [2]) [µg/mL] | Selectivity Index [3] | HC50 ([1]; erythrocyte, 1 h) [µg/mL] | IC50 (Leishmania amazonensis [4]) [µg/mL] | Activity (Leishmania amazonensis [5])
1 | N#Cc1c(/N=C/c2c[nH]c3ccccc23)sc2c1CCCC2 | > 400 | 4.5 (≈ 14.7 µM) | >88.8 | – | – | –
2 | N#Cc1c(/N=C/c2c[nH]c3cccc([N+](=O)[O-])c23)sc2c1CCC2 | – | 171 (≈ 509 µM) | – | – | – | –
3 | N#Cc1c(/N=C/c2c[nH]c3ncccc23)sc2c1CCCCCC2 | > 400 | 651 (≈ 1950 µM) | >0.6 | – | – | –
4 | COc1ccc2[nH]cc(/C=N/c3sc4c(c3C#N)CCCCC4)c2c1 | > 400 | 10.2 (≈ 29.2 µM) | >39.1 | – | – | –
5 | N#Cc1ccc2[nH]cc(/C=N/c3sc4c(c3C#N)CCCCC4)c2c1 | > 400 | 3.4 (≈ 9.87 µM) | >115.6 | – | – | –
6 | N#Cc1c(/N=C/c2c[nH]c3cccc([N+](=O)[O-])c23)sc2c1CCCCCC2 | > 400 | 9.4 (≈ 24.8 µM) | >42.5 | – | – | –
7 | Cc1cccc2c(/C=N/c3sc4c(c3C#N)CCC4)c[nH]c12 | – | 91.6 (≈ 300 µM) | – | – | – | –
8 | N#Cc1c(/N=C/c2c[nH]c3ncccc23)sc2c1CCCC2 | > 400 | 228 (≈ 744 µM) | >1.7 | – | – | –
9 | N#Cc1c(/N=C/c2c[nH]c3cccc([N+](=O)[O-])c23)sc2c1CCCCC2 | > 400 | 1070 (≈ 2930 µM) | >0.3 | – | – | –
10 | N#Cc1c(/N=C/c2c[nH]c3ccccc23)sc2c1CCCCC2 | > 400 | 3.2 (≈ 10 µM) | >124.6 | – | – | –
11 | N#Cc1c(/N=C/c2c[nH]c3cccc([N+](=O)[O-])c23)sc2c1CCCC2 | > 400 | 299 (≈ 853 µM) | >1.3 | – | – | –
12 | MEGLUMINE ANTIMONATE [listing 1 of 2 here] | – | – | – | 681.2 | – | –
13 | Potassium antimonyl tartrate trihydrate | – | – | 38.2 | – | – | –
14 | Cc1ccc2[nH]cc(/C=N/c3sc4c(c3C#N)CCC4)c2c1 | > 400 | 7.1 (≈ 23.2 µM) | >56.6 | – | – | –
15 | N#Cc1ccc2[nH]cc(/C=N/c3sc4c(c3C#N)CCCC4)c2c1 | > 400 | 4.7 (≈ 14.2 µM) | >84.7 | – | – | –
16 | Cc1cccc2c(/C=N/c3sc4c(c3C#N)CCCCCC4)c[nH]c12 | > 400 | 4.1 (≈ 11.8 µM) | >96.6 | – | – | –
17 | Cc1cccc2c(/C=N/c3sc4c(c3C#N)CCCCC4)c[nH]c12 | > 400 | 786 (≈ 2360 µM) | >0.5 | – | – | –
18 | N#Cc1c(/N=C/c2c[nH]c3c2ccc2ccccc23)sc2c1CCCC2 | > 400 | 29.7 (≈ 83.6 µM) | >13.5 | – | – | –

Row | Molecule | HC50 at 1 h [1] [µg/mL] | IC50 (Leishmania amazonensis [2]) [µg/mL] | Selectivity Index [3] | HC50 ([1]; erythrocyte, 1 h) [µg/mL] | IC50 (Leishmania amazonensis [4]) [µg/mL] | Activity (Leishmania amazonensis [5])
19 | COc1ccc2[nH]cc(/C=N/c3sc4c(c3C#N)CCC4)c2c1 | > 400 | 125 (≈ 388 µM) | >3.2 | – | – | –
20 | N#Cc1ccc2[nH]cc(/C=N/c3sc4c(c3C#N)CCCCCC4)c2c1 | > 400 | 2.1 (≈ 5.86 µM) | >193.2 | – | 2.8 (≈ 7.81 µM) | Active
21 | COc1ccc2[nH]cc(/C=N/c3sc4c(c3C#N)CCCCCC4)c2c1 | > 400 | 6.4 (≈ 17.6 µM) | >62.7 | – | – | –
22 | N#Cc1c(/N=C/c2c[nH]c3c2ccc2ccccc23)sc2c1CCCCCC2 | > 400 | 9.4 (≈ 24.5 µM) | >42.6 | – | – | –
23 | N#Cc1c(/N=C/c2c[nH]c3c2ccc2ccccc23)sc2c1CCC2 | > 400 | 7.9 (≈ 23.1 µM) | >50.7 | – | – | –
24 | N#Cc1c(/N=C/c2c[nH]c3c2ccc2ccccc23)sc2c1CCCCC2 | > 400 | 18.7 (≈ 50.6 µM) | >21.4 | – | – | –
25 | Cc1ccc2[nH]cc(/C=N/c3sc4c(c3C#N)CCCC4)c2c1 | > 400 | 2.3 (≈ 7.2 µM) | >172.4 | – | – | –
26 | N#Cc1c(/N=C/c2c[nH]c3ncccc23)sc2c1CCCCC2 | > 400 | 8.7 (≈ 27.2 µM) | >45.8 | – | – | –
27 | N#Cc1ccc2[nH]cc(/C=N/c3sc4c(c3C#N)CCC4)c2c1 | > 400 | 7.4 (≈ 23.4 µM) | >53.7 | – | – | –
28 | N#Cc1c(/N=C/c2c[nH]c3ncccc23)sc2c1CCC2 | > 400 | 289 (≈ 988 µM) | >1.4 | – | – | –
29 | C[C@@H]1[C@H](O)[C@@H](C)/C=C/C=C/C=C/C=C/C=C/C=C/C=C/[C@H](O[C@@H]2O[C@H](C)[C@@H](O)[C@H](N)[C@@H]2O)C[C@@H]2O[C@](O)(C[C@@H](O)C[C@@H](O)[C@H](O)CC[C@@H](O)C[C@@H](O)CC(=O)O[C@H]1C)C[C@H](O)[C@H]2C(=O)O [AMPHOTERICIN B] | 22.4 | 0.2 (≈ 0.216 µM) | 124.5 | – | – | –
30 | Cc1ccc2[nH]cc(/C=N/c3sc4c(c3C#N)CCCCCC4)c2c1 | > 400 | 6.5 (≈ 18.7 µM) | >61.3 | – | – | –
31 | N#Cc1c(/N=C/c2c[nH]c3ccccc23)sc2c1CCCCCC2 | > 400 | 5.4 (≈ 16.2 µM) | >73.2 | – | – | –
32 | MEGLUMINE ANTIMONATE [listing 2 of 2 here] | – | – | 0.02 | – | – | –
33 | N#Cc1c(/N=C/c2c[nH]c3ccccc23)sc2c1CCC2 | > 400 | 48.9 (≈ 168 µM) | >8.2 | – | – | –
34 | Cc1ccc2[nH]cc(/C=N/c3sc4c(c3C#N)CCCCC4)c2c1 | > 400 | 6.1 (≈ 18.3 µM) | >65.6 | – | – | –
35 | Cc1cccc2c(/C=N/c3sc4c(c3C#N)CCCC4)c[nH]c12 | > 400 | 322 (≈ 1010 µM) | >1.2 | – | – | –
36 | COc1ccc2[nH]cc(/C=N/c3sc4c(c3C#N)CCCC4)c2c1 | > 400 | 6 (≈ 17.9 µM) | >66.8 | – | – | –
